Laboratory results: patent publication US8962639B2, “Potassium channel modulators” (AbbVie Inc., priority 2009, dated 2015)

Molecular target: T1, human KCNQ2 and KCNQ3 (Homo sapiens, UniProt O43525+O43526)
T1 construct: expressed in transfected cells; host or cells: HEK293
Test: KCNQ 2/3 channel activation, thallium flux FLIPR assay (BTC-AM dye) in HEK293 cells
Assay type: cell-based
Conditions: for Emax: HEK293, maximum response relative to response of retigabine at 10 μM set at 100%, read-out: Max response; for EC50: HEK293 cells stably expressing human KCNQ2 and KCNQ3, compound incubated 4 minutes, Tl+ flux fluorescence
Protocol: The following example describes the assay that can be used to identify compounds that activate KCNQ 2/3 channels.
HEK293 cells stably expressing human KCNQ2 and KCNQ3 were seeded in 96-well, black-walled, clear-bottomed, poly-D-lysine coated plates (BD Biosciences, Bedford, Mass.) at a density of 1×10^5 cells per well 24 hours before the assay. On the assay day, BTC-AM dye (Invitrogen, Carlsbad, Calif.) was loaded into the cells by replacing the cell culture medium with 100 μL/well of 4 μM dye in DPBS. Dye loading was allowed to proceed for 2 hours at room temperature and then cells were washed twice in 100 μL/well of assay buffer (in mM: 10 HEPES pH 7.3, 5 glucose, 140 Na-gluconate, 2.5 K-gluconate, 3.6 Ca-gluconate, 2 MgSO4, 0.1 Ouabain) to remove unloaded dye. Cells were incubated in 50 μL of assay buffer before loading onto a FLIPR system (Molecular Devices, Sunnyvale, Calif.). Various concentrations of compounds to be assayed were added to the cells in 50 μL of assay buffer and incubated for 4 minutes. The fluorescence signal was initiated by adding 100 μL of assay buffer containing 6 mM TlNO3 and 10 mM K2SO4. Fluors were excited using the 488-nm line of an argon laser and emission was filtered using a 540±30 nm bandpass filter. Fluorescent signals were recorded for 3 minutes. Responses over baseline values were plotted versus concentrations of test compounds to obtain an EC50 value. The maximum response for each test compound was determined relative to the response produced at 10 μM by retigabine. The maximum response of retigabine at 10 μM was set at 100%.

T1 sequence (O43526 whole entry): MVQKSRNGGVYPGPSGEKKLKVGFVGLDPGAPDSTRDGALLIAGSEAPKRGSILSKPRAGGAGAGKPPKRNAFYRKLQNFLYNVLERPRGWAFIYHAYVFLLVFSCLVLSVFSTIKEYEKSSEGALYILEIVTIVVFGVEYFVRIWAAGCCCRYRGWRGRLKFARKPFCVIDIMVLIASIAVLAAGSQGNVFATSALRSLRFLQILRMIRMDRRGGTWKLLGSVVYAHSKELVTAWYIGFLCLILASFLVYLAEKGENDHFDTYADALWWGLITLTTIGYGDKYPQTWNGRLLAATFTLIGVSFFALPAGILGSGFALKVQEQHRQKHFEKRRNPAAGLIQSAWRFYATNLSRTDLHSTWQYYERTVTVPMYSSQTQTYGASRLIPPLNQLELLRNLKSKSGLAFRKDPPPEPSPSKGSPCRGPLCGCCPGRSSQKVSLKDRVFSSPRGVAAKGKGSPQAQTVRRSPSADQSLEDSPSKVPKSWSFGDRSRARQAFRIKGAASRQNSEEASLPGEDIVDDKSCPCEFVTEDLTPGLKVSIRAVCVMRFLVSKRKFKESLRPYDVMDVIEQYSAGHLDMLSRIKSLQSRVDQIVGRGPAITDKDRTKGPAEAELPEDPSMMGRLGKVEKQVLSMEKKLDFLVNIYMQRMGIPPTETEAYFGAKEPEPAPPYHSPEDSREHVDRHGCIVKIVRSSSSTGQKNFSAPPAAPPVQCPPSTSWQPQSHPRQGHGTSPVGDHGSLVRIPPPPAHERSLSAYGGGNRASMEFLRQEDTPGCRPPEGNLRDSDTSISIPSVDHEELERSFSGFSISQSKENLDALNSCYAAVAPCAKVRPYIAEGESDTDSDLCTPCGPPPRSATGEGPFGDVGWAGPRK
T1 sequence (O43525 whole entry): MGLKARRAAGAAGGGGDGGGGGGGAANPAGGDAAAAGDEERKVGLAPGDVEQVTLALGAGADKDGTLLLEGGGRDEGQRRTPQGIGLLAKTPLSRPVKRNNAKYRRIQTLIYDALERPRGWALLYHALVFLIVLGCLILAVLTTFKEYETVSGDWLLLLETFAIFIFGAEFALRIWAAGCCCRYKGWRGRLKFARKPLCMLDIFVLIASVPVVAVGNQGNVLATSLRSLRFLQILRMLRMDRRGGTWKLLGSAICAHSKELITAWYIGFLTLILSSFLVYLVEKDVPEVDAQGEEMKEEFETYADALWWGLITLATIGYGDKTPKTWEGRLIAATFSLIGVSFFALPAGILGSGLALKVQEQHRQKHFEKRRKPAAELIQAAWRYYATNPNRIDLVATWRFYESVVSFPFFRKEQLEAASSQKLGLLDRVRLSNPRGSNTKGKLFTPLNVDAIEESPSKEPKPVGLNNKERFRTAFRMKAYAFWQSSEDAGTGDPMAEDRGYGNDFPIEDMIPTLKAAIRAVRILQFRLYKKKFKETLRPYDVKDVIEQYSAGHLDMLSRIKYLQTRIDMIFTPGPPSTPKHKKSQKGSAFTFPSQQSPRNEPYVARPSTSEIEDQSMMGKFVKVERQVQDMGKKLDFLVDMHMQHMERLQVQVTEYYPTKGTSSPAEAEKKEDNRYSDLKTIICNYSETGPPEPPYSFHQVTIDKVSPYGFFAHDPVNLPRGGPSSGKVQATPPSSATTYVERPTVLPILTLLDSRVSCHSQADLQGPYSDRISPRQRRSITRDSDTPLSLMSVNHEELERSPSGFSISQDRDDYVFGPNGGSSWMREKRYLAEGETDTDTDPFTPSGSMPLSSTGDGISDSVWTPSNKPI

| Compound | Emax | EC50 |
| --- | --- | --- |
| Cc1sc2nc(C)n(NC(=O)CC34CC5CC(CC(C5)C3)C4)c(=O)c2c1-c1ccccc1 [Example 46, 2-(1-adamantyl)-N-(2,6-dimethyl-4-oxo-5-phenylthieno[2,3-d]pyrimidin-3(4H)-yl)acetamide] | 130% | 454 nM |
| CC(C)c1nc2ccccc2c(=O)n1NC(=O)CC1C2CC3CC(C2)CC1C3 (centres unmarked) [Example 1, 2-(2-adamantyl)-N-(2-isopropyl-4-oxoquinazolin-3(4H)-yl)acetamide] | 88.8% | 138 nM |
| O=C(Nn1c(-c2ccccc2)nc2ccccc2c1=O)C1CC2CCC1C2 (racemic) [Example 23, (±)-endo-N-(4-oxo-2-phenylquinazolin-3(4H)-yl)bicyclo[2.2.1]heptane-2-carboxamide] | 34.3% | 540 nM |
| CC(C)c1nc2cc(-c3ccccc3F)sc2c(=O)n1NC(=O)CC1CC2CCC1C2 (racemic) [Example 41, (±)-2-[(exo)-bicyclo[2.2.1]hept-2-yl]-N-[6-(2-fluorophenyl)-2-isopropyl-4-oxothieno[3,2-d]pyrimidin-3(4H)-yl]acetamide] | 17% | > 30000 nM |
| Cc1nc2sc3c(c2c(=O)n1NC(=O)CC12CC4CC(CC(C4)C1)C2)CCC3 [Example 45, 2-(1-adamantyl)-N-(2-methyl-4-oxo-6,7-dihydro-4H-cyclopenta[4,5]thieno[2,3-d]pyrimidin-3(5H)-yl)acetamide] | 19.6% | > 31600 nM |
| O=C(C[C@@H]1C[C@@H]2C=C[C@H]1C2)Nn1c(-c2ccccc2)nc2ccccc2c1=O (racemic) [Example 19, (±)-endo-2-bicyclo[2.2.1]hept-5-en-2-yl-N-(4-oxo-2-phenylquinazolin-3(4H)-yl)acetamide] | 130% | 2280 nM |
| CC(C)c1nc2ccccc2c(=O)n1NC(=O)[C@H]1C[C@@H]2C=C[C@H]1C2 (racemic) [Example 32, (±)-(exo)-N-(2-isopropyl-4-oxoquinazolin-3(4H)-yl)bicyclo[2.2.1]hept-5-ene-2-carboxamide] | 99.2% | 2230 nM |
| CCc1nc2ccccc2c(=O)n1NC(=O)[C@@H]1[C@H]2[C@@H]3CC[C@@H](C3)[C@@H]12 [Example 58, (exo,exo)-N-(2-ethyl-4-oxoquinazolin-3(4H)-yl)tricyclo[3.2.1.0^2,4]octane-3-carboxamide] | 11.6% | > 31600 nM |
| Cc1nc2sc3c(c2c(=O)n1NC(=O)CC12CC4CC(CC(C4)C1)C2)CCCC3 [Example 44, 2-(1-adamantyl)-N-(2-methyl-4-oxo-5,6,7,8-tetrahydro[1]benzothieno[2,3-d]pyrimidin-3(4 H)-yl)acetamide] | 81.8% | 2010 nM |
| CCc1nc2ccccc2c(=O)n1NC(=O)C[C@@H]1C[C@@H]2CC[C@@H](C2)C1 [Example 55, endo 2-[bicyclo[3.2.1]oct-3-yl]-N-(2-ethyl-4-oxoquinazolin-3(4H)-yl)acetamide] | 150% | 417 nM |
| CC(C)c1nc2ccccc2c(=O)n1NC(=O)C[C@@H]1C[C@@H]2CC(=O)C[C@@H](C2)C1 [Example 60] | 58% | > 31600 nM |
| Cc1sc2nc(C)n(NC(=O)CC34CC5CC(CC(C5)C3)C4)c(=O)c2c1C [Example 49, 2-(1-adamantyl)-N-(2,5,6-trimethyl-4-oxothieno[2,3-d]pyrimidin-3(4H)-yl)acetamide] | 65.2% | 779 nM |
| Cc1cc2c(=O)n(NC(=O)CC34CC5CC(CC(C5)C3)C4)c(C)nc2s1 [Example 47, 2-(1-adamantyl)-N-(2,6-dimethyl-4-oxothieno[2,3-d]pyrimidin-3(4H)-yl)acetamide] | 56.7% | 652 nM |
